Experiments:
[1] = system: norepinephrine and serotonin uptake; details: Klamerus et al., J. Clin. Pharmacol. 32:716-724 (1992); cited from earlier work
[2] = system: subjects with a primary diagnosis of MDD; test: MDD Study No. 3: safety evaluation (discontinuations, AEs); format: in vivo, human; details: count; for Adverse Event Abnormal Dreams, subjects / Adverse Event Vomiting, subjects: placebo 3 (2); for Adverse Event Constipation, subjects: placebo 4 (3); for Adverse Event Anorexia, subjects / Adverse Event Flu Syndrome, subjects: placebo 5 (3); for Adverse Event Asthenia, subjects / Adverse Event Insomnia, subjects: placebo 6 (4); for Adverse Event Somnolence, subjects: placebo 8 (5); for Adverse Event Nausea, subjects: placebo 14 (9)
Procedure: The safety of the two doses was determined using the same assessments as in Example 1.

[3] = system: subjects with a primary diagnosis of MDD; test: MDD Study No. 1: safety evaluation (AEs, DESS, laboratory, vital signs, ECG); format: in vivo, human; details: for subjects with AEs as reason for study discontinuation: double-blind on-therapy period, placebo 3%; for subjects reporting serious or noteworthy AEs: none in placebo; for subjects with AEs of clinical importance: placebo 4
Procedure: On study day −1 (baseline), eligible subjects were randomly assigned to 1 of 2 fixed doses of ODV (50 or 100 mg/day) or to placebo for the 8-week double-blind treatment period. A 7-day taper period after the end of double-blind treatment was recommended but may have been omitted, shortened, or lengthened at the discretion of the investigator. Subjects assigned to the ODV 50 mg dose group received their maintenance dose beginning on study day 1 and continued this regimen until study day 56 or early withdrawal. For the taper period (days 1 through 7 after the end of the double-blind treatment period), they received 0 mg. Subjects assigned to the ODV 100 mg dose group were titrated to their maintenance dose. On study days 1 through 7 they received ODV 50 mg/day. Beginning on study day 8, they received their assigned dose of ODV 100 mg/day and continued on this regimen until study day 56 or early withdrawal. For the taper period (days 1 through 7 after the end of the double-blind treatment period), they received ODV 50 mg/day. Subjects assigned to placebo received their maintenance dose (0 mg) from study day 1 through day 56 or early withdrawal, and also received 0 mg during the taper period.
The safety of the two doses was determined using the following assessments: monitoring of adverse events (AEs), withdrawal because of AEs, concomitant medications, physical examinations, standard 12-lead electrocardiograms (ECGs), vital signs (supine and standing pulse rate and blood pressure (BP); body weight), laboratory determinations (hematology, blood chemistry, and urinalysis; free thyroxine index, including total thyroxine and triiodothyronine, and the β-HCG), and the Discontinuation-Emergent Signs and Symptoms (DESS) checklist.

[4] = system: subjects with a primary diagnosis of MDD; test: MDD Study No. 2: efficacy evaluation, randomized double-blind placebo-controlled study; format: in vivo, human
Procedure: This example describes the results of a second multicenter, randomized, double-blind, placebo-controlled, parallel-group study that was also designed to evaluate the efficacy and safety of 50 and 100 mg/day ODV for treating MDD.
Subjects were male or female adults that met the same criteria as the subjects in Example 1. The planned enrollment was 450 subjects. A total of 565 subjects were screened for participation; 80 were screen failures and 485 were randomly assigned to treatment: 161 were assigned to receive placebo, 166 were assigned to receive ODV 50 mg/day; and 158 were assigned to receive ODV 100 mg/day. All 485 randomized subjects were included in the safety population (completed the prestudy period and took at least 1 dose of double-blind study drug). The intent-to-treat [ITT] efficacy population included 483 subjects, and the per-protocol [PP] efficacy population included 440 subjects. Completers for exposure (353 subjects) were defined as subjects who had at least 53 days of exposure to study drug.
The administration protocols for 50 or 100 mg/day and placebo groups were the same as in Example 1.
The primary and secondary outcomes were the same as in Example 1 as were the statistical methods. P-values of less than 0.05 are shown in bold.

[5] = 50 mg group, number of subjects
[6] = 100 mg group, number of subjects

Structure (SMILES): CN(C)CC(c1ccc(O)cc1)C1(O)CCCCC1 (stereo not shown) [ODV, 1-[2-(dimethylamino)-1-(4-phenol)ethyl]-cyclohexanol]
- inhibition of norepinephrine and serotonin uptake [1]: has been shown to inhibit norepinephrine and serotonin uptake
- Discontinued, reason Adverse Event, subjects ([2]; 50 mg, n = 148): 8 (5)
- Adverse Event Abnormal Dreams, subjects ([2]; 50 mg, n = 148): 5 (3)
- Adverse Event Vomiting, subjects ([2]; 50 mg, n = 148): 2 (1)
- Adverse Event Constipation, subjects ([2]; 50 mg, n = 148): 9 (6)
- Adverse Event Anorexia, subjects ([2]; 50 mg, n = 148): 14 (10)
- Adverse Event Flu Syndrome, subjects ([2]; 50 mg, n = 148): 6 (4)
- Adverse Event Asthenia, subjects ([2]; 50 mg, n = 148): 12 (8)
- Adverse Event Insomnia, subjects ([2]; 50 mg, n = 148): 20 (14)
- Adverse Event Somnolence, subjects ([2]; 50 mg, n = 148): 14 (10)
- Adverse Event Nausea, subjects ([2]; 50 mg, n = 148): 33 (22)
- Discontinued, reason Adverse Event, subjects ([2]; 100 mg, n = 150): 11 (7)
- Adverse Event Abnormal Dreams, subjects ([2]; 100 mg, n = 150): 4 (3)
- Adverse Event Vomiting, subjects ([2]; 100 mg, n = 150): 6 (4)
- Adverse Event Constipation, subjects ([2]; 100 mg, n = 150): 10 (7)
- Adverse Event Anorexia, subjects ([2]; 100 mg, n = 150): 14 (9)
- Adverse Event Flu Syndrome, subjects ([2]; 100 mg, n = 150): 10 (7)
- Adverse Event Asthenia, subjects ([2]; 100 mg, n = 150): 18 (12)
- Adverse Event Insomnia, subjects ([2]; 100 mg, n = 150): 26 (17)
- Adverse Event Somnolence, subjects ([2]; 100 mg, n = 150): 18 (12)
- Adverse Event Nausea, subjects ([2]; 100 mg, n = 150): 35 (23)
- most common (incidence≧5%) taper/poststudy-emergent AEs ([3]; 50 mg group): diarrhea, nausea, abnormal dreams, dizziness, and hostility
- subjects with AEs as reason for study discontinuation ([3]; 50 mg group, 151 subjects): 3%
- p-value, mean DESS scores compared with placebo ([3]; 50 mg group, first week of the taper period): 0.001
- subjects with clinically important AE hypertension [3, 5]: 2
- subjects with clinically important AE hypotension [3, 5]: 2
- subjects with laboratory values considered clinically important by the medical monitor [3, 5]: 2
- subjects reporting serious or noteworthy AEs [3, 5]: 5
- subjects with AEs of clinical importance [3, 5]: 13
- subjects with AEs as reason for study discontinuation ([3]; 100 mg group, 148 subjects): 7%
- subjects with clinically important AE hypertension [3, 6]: 1
- subjects with laboratory values considered clinically important by the medical monitor [3, 6]: 3
- subjects reporting serious or noteworthy AEs [3, 6]: 4
- subjects with AEs of clinical importance [3, 6]: 10
- subjects with clinically important vital signs results ([3]; ODV treated subjects, both doses, 3 elevated supine BP, 1 postural hypotension): four
- clinically important findings for ECGs or ECG-related AEs ([3]; all subjects, 50 and 100 mg/day): None of the subjects had clinically important findings for ECGs
- HAM-D17 total score, adjusted mean change from baseline ([4]; 50 mg/day, FOT evaluation, ANCOVA LOCF, placebo −10.7): −13.2
- HAM-D17 total score, adjusted mean change from baseline ([4]; 50 mg/day, week 8, mixed effect model, placebo −11.5): −14.4
- HAM-D17 total score, adjusted mean change from baseline ([4]; 100 mg/day, FOT evaluation, ANCOVA LOCF, placebo −10.7): −13.7
- HAM-D17 total score, adjusted mean change from baseline ([4]; 100 mg/day, week 8, mixed effect model, placebo −11.5): −14.9

Reference: patent US20110027324A1, “O-DESMETHYL-V[…] TREATING MAJOR DEPRESSIVE DISORDER” (Wyeth LLC, priority 2007, published 2011)
